Assay results: patent US20240182461A1, “SELECTIVE ANGIOTENSIN II RECEPTOR LIGANDS” (priority 2021, published 2024)
Like-named read-outs stand apart in the source and are kept apart here.

Experiments:
Format in all cases: in vitro ADME
CYP2C8 = target: T1, CYP2C8 (Homo sapiens, UniProt P10632); test: CYP inhibition in human liver microsomes, CYP2C8; conditions: probe paclitaxel and amodiaquine, substrates paclitaxel and amodiaquine, read-out: CYP2C8 Inh %
T1 construct: incubated with human liver microsomes; from tissue; host or cells: human liver microsomes
T1 sequence (P10632 1-490): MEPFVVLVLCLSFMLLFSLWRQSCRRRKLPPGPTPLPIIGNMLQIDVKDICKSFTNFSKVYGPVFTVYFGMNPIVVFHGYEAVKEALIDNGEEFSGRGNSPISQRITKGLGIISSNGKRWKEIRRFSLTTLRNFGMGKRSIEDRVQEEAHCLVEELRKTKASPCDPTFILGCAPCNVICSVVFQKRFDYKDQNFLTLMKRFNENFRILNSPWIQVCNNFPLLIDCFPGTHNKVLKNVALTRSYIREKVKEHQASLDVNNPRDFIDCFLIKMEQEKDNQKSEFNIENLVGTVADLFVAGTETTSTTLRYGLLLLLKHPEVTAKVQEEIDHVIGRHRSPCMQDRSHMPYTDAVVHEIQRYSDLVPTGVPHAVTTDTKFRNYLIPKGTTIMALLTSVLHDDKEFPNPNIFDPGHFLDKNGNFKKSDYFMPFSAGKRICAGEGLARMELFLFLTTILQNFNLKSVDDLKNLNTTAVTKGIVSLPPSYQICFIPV

CYP3A4 = CYP3A4 (Homo sapiens, UniProt P08684); test: CYP inhibition in human liver microsomes, CYP3A4 midazolam; parameters: incubated with human liver microsomes; from tissue; host or cells: human liver microsomes; conditions: probe midazolam, substrate midazolam, read-out: CYP3A4 midazolam Inh %
CYP2C9 = CYP2C9 (Homo sapiens, UniProt P11712); test: CYP inhibition in human liver microsomes, CYP2C9; parameters: incubated with human liver microsomes; from tissue; host or cells: human liver microsomes; conditions: probe diclofenac, substrate diclofenac, read-out: CYP2C9 Inh %
CYP2B6 = target: T2, CYP2B6 (Homo sapiens, UniProt P20813); test: CYP inhibition in human liver microsomes, CYP2B6; conditions: probe bupropion, substrate bupropion, read-out: CYP2B6 Inh %
T2 construct: incubated with human liver microsomes; from tissue; host or cells: human liver microsomes
T2 sequence (P20813 1-491): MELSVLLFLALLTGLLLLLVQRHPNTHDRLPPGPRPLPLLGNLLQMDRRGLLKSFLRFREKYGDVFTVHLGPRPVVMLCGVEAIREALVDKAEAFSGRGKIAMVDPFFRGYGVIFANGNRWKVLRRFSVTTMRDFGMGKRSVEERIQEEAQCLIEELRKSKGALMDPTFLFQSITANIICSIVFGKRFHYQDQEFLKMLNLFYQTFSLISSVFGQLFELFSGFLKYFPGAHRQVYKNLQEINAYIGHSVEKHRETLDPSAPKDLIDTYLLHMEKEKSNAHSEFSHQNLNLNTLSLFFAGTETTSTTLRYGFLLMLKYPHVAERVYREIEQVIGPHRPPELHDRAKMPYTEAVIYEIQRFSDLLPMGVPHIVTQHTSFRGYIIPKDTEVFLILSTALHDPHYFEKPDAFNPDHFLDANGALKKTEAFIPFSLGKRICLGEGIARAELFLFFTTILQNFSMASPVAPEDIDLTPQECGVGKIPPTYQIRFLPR

CYP2D6 = target: T3, CYP2D6 (Homo sapiens, UniProt P10635); test: CYP inhibition in human liver microsomes, CYP2D6; conditions: probe dextromethorphan, substrate dextromethorphan, read-out: CYP2D6 Inh %
T3 construct: incubated with human liver microsomes; from tissue; host or cells: human liver microsomes

CYP3A4&5 = test: CYP inhibition in human liver microsomes, CYP3A4&5 testosterone; conditions: probe testosterone, substrate testosterone, read-out: CYP3A4&5 testosterone Inh %
[1] = Metabolic stability in pooled human liver microsomes; conditions: human liver microsomes 0.5 mg/mL, 1 μM compound, 37° C.
CYP2C19 = target: T4, CYP2C19 (Homo sapiens, UniProt P33261); test: CYP inhibition in human liver microsomes, CYP2C19; conditions: probe omeprazole, substrate omeprazole, read-out: CYP2C19 Inh %
T4 construct: incubated with human liver microsomes; from tissue; host or cells: human liver microsomes

CYP1A = target: T5, CYP1A (Homo sapiens, UniProt P05177); test: CYP inhibition in human liver microsomes, CYP1A; conditions: probe phenacetin, substrate phenacetin, read-out: CYP1A Inh %
T5 construct: incubated with human liver microsomes; from tissue; host or cells: human liver microsomes

[2] = with 1 mM NADPH, read-out: T1/2, + NaDPH
[3] = without NADPH, read-out: T1/2, no NaDPH

T5 sequence (P05177 whole entry): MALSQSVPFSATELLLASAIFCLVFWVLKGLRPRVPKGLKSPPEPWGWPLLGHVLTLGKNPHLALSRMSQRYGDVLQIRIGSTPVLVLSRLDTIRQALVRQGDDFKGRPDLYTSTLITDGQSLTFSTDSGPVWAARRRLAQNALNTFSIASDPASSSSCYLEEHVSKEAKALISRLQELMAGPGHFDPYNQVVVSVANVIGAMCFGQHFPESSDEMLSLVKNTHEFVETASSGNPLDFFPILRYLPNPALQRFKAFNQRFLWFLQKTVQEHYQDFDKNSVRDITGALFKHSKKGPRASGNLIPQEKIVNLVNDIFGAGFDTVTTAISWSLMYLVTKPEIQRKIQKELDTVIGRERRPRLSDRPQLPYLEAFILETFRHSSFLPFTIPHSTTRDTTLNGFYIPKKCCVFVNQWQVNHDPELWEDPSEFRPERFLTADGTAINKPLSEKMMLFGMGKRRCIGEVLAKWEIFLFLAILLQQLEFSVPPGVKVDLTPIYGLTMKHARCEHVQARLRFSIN
T4 sequence (P33261 whole entry): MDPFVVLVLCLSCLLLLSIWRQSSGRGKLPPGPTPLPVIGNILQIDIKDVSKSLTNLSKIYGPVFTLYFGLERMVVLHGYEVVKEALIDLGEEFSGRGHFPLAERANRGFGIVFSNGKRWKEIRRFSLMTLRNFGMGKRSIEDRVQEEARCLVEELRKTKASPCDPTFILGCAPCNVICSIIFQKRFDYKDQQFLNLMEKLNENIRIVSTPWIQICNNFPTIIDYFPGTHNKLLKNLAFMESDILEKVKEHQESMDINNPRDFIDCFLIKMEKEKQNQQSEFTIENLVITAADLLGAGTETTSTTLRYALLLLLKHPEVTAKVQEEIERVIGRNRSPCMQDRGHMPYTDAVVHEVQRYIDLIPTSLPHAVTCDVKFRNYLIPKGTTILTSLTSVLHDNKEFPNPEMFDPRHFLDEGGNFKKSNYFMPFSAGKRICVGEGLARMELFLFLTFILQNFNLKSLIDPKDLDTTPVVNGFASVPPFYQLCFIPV
T3 sequence (P10635 whole entry): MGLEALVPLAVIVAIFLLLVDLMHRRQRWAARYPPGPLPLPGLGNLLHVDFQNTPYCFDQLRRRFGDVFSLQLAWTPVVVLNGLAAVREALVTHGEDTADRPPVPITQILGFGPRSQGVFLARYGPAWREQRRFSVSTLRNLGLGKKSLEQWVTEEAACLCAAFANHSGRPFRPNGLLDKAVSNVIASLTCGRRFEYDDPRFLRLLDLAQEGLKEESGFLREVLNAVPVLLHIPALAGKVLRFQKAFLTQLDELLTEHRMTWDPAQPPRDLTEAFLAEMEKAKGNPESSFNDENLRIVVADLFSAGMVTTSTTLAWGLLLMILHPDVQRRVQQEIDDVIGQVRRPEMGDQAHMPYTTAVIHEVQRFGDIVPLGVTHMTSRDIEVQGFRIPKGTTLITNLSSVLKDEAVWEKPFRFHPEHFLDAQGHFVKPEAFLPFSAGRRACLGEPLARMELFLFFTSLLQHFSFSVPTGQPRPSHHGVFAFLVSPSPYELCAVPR
CYP2C9, sequence (P11712 whole entry): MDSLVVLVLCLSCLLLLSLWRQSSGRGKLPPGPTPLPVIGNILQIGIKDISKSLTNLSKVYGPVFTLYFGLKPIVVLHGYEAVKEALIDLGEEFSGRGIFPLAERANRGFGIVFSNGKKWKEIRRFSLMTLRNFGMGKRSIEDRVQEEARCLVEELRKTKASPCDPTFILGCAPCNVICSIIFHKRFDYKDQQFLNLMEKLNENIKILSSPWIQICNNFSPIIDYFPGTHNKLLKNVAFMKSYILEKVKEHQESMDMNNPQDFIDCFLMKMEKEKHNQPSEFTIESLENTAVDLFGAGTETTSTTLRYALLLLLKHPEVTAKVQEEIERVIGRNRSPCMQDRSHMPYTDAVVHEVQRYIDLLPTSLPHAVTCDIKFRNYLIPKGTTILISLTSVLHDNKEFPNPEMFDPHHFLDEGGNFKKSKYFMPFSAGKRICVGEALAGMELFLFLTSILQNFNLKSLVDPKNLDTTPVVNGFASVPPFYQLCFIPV
CYP3A4, sequence (P08684 whole entry): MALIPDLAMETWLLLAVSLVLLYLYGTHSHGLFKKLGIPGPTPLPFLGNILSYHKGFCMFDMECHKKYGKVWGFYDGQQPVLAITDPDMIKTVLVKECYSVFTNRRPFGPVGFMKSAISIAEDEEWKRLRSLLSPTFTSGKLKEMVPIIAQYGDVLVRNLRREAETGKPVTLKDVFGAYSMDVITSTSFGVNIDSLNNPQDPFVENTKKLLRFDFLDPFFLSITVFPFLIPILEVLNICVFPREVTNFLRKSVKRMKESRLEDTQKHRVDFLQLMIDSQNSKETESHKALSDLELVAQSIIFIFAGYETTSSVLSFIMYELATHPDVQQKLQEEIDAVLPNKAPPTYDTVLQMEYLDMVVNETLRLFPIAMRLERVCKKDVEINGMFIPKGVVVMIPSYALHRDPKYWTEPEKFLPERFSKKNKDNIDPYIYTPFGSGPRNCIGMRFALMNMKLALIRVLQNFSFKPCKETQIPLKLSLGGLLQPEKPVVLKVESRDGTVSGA

SMILES	inhibition at 10 µM (CYP2C8) [%]	inhibition at 10 µM (CYP3A4) [%]	inhibition at 10 µM (CYP2C9) [%]	inhibition at 10 µM (CYP2B6) [%]	inhibition at 10 µM (CYP2D6) [%]	inhibition at 10 µM (CYP3A4&5) [%]	half-life at 1 μM [1, 2] [min]	half-life at 1 μM [1, 3] [min]	inhibition at 10 µM (CYP2C19) [%]	inhibition at 10 µM (CYP1A) [%]
COC(=O)NS(=O)(=O)c1ccc(CC(C)C)cc1-c1ccc(Cn2ccnc2C(C)(C)C)c(F)c1 [Example 5, Methyl ((4′-((2-(tert-butyl)-1H-imidazol-1-yl)methyl)-3′-fluoro-5-isobutyl-[1,1′-biphenyl]-2-yl)sulfonyl)carbamate]	87.9	3.8	72	26.2	17.7	15.1	> 60	> 60	34.4	-13.1
CCOC(=O)NS(=O)(=O)c1ccc(CC(C)C)cc1-c1ccc(Cn2ccnc2C(C)(C)C)c(F)c1 [Example 6, Ethyl ((4′-((2-(tert-butyl)-1H-imidazol-1-yl)methyl)-3′-fluoro-5-isobutyl-[1,1′-biphenyl]-2-yl)sulfonyl)carbamate]	53	19.9	72.2	26.4	33.1	31	12	14	49.3	8.6
CCCCOC(=O)NS(=O)(=O)c1ccc(CC(C)C)cc1-c1ccc(Cn2ccnc2C(C)C)c(F)c1 [Example 7, Butyl ((3′-fluoro-5-isobutyl-4′-((2-isopropyl-1H-imidazol-1-yl)methyl)-[1,1′-biphenyl]-2-yl)sulfonyl)carbamate]	73.9	9.7	80.7	52.2	-4.1	29.7	18	20	59.3	6.3
CCOC(=O)NS(=O)(=O)c1ccc(CC(C)C)cc1-c1ccc(Cn2ccnc2C(C)C)c(F)c1 [Example 8, Ethyl ((3′-fluoro-5-isobutyl-4′-((2-isopropyl-1H-imidazol-1-yl)methyl)-[1,1′-biphenyl]-2-yl)sulfonyl)carbamate]	76.7	-4.7	50	32	1.2	19.4	36	35	33.7	10.4
COC(=O)NS(=O)(=O)c1ccc(CC(C)C)cc1-c1ccc(Cn2ccnc2C(C)C)c(F)c1 [Example 9, Methyl ((3′-fluoro-5-isobutyl-4′-((2-isopropyl-1H-imidazol-1-yl)methyl)-[1,1′-biphenyl]-2-yl)sulfonyl)carbamate]	77.2	-4.9	37.9	28.2	-2.4	17.5	> 60	> 60	27.2	2.5
CCCCOC(=O)NS(=O)(=O)c1ccc(CC(C)C)cc1-c1ccc(Cn2ccnc2C)c(F)c1 [Example 10, Butyl ((3′-fluoro-5-isobutyl-4′-((2-methyl-1H-imidazol-1-yl)methyl)-[1,1′-biphenyl]-2-yl)sulfonyl)carbamate]	46.9	11.5	68.6	31.8	-12.9	24.5	32	35	54.9	3.2
CCCCOC(=O)NS(=O)(=O)c1ccc(CC(C)C)cc1-c1ccc(Cn2ccnc2CC)c(F)c1 [Example 11, Butyl ((4′-((2-ethyl-1H-imidazol-1-yl)methyl)-3′-fluoro-5-isobutyl-[1,1′-biphenyl]-2-yl)sulfonyl)carbamate]	61.3	5.6	81.3	35	0.3	30.5	26	26	59.3	4.3
CCOC(=O)NS(=O)(=O)c1ccc(CC(C)C)cc1-c1ccc(Cn2ccnc2C)c(F)c1 [Example 12, Ethyl ((3′-fluoro-5-isobutyl-4′-((2-methyl-1H-imidazol-1-yl)methyl)-[1,1′-biphenyl]-2-yl)sulfonyl)carbamate]	39.7	8.6	52.6	18.9	2.9	12.6	> 60	50	50.7	5.9
COC(=O)NS(=O)(=O)c1ccc(CC(C)C)cc1-c1ccc(Cn2ccnc2C)c(F)c1 [Example 13, Methyl ((3′-fluoro-5-isobutyl-4′-((2-methyl-1H-imidazol-1-yl)methyl)-[1,1′-biphenyl]-2-yl)sulfonyl)carbamate]	27.7	9.3	32.3	18.4	-0.8	14.5	> 60	> 60	24.6	7.6
CCOC(=O)NS(=O)(=O)c1ccc(CC(C)C)cc1-c1ccc(Cn2ccnc2CC)c(F)c1 [Example 14, Ethyl ((4′-((2-ethyl-1H-imidazol-1-yl)methyl)-3′-fluoro-5-isobutyl-[1,1′-biphenyl]-2-yl)sulfonyl)carbamate]	57.6	-4.2	68	20.6	0.1	21.9	43	46	40.9	9.4
CCc1nccn1Cc1ccc(-c2cc(CC(C)C)ccc2S(=O)(=O)NC(=O)OC)cc1F [Example 15, Methyl ((4′-((2-ethyl-1H-imidazol-1-yl)methyl)-3′-fluoro-5-isobutyl-[1,1′-biphenyl]-2-yl)sulfonyl)carbamate]	52.4	-5.3	59.6	16.1	2.2	18.4	> 60	> 60	21.5	7
CC(C)Cc1ccc(S(=O)(=O)NC(=O)OCCO)c(-c2ccc(Cn3ccnc3C(C)(C)C)cc2)c1 [Example 16, 2-Hydroxyethyl (4′-((2-(tert-butyl)-1H-imidazol-1-yl)methyl)-5-isobutyl-[1,1′-biphenyl]-2-yl)sulfonylcarbamate]	–	–	–	–	–	–	> 60	> 60	–	–
